“Also recorded” adds a separate entry of the source.
Tests used:
[1] = Liver microsomal stability (LCMS/MS); type: in vitro ADME; details: in the presence of liver microsomes
[2] = system: AHR-dependent transcription of the CYP1A1 gene; assay: CYP1A1 induction in mouse macrophages; type: cell-based
Experimental: (§1) Mouse macrophages were also used to test AHR-dependent transcription of the CYP1A1 gene in vivo. Finally, the activity of exemplary compounds of Formula (I) described herein was tested in the human […] cell line U937. The U937 cell line is derived from a patient with diffuse histiocytic lymphoma. Tables 2-4 summarize structure-activity relationship data collected for exemplary, non-limiting compounds of Formula (I) described herein.

[3] = LC-MS/MS analysis of plasma after oral dosing of mice; type: in vivo, mouse; details: LC-MS/MS of plasma samples
[4] = Plasma stability (LCMS/MS); type: in vitro ADME; details: incubated in plasma
[5] = system: AHR-dependent transcription of the CYP1A1 gene; assay: CYP1A1 induction in human U937 cells; type: cell-based; details: Human U937, 1 μM
Experimental: as §1

[6] = target: T1, aryl hydrocarbon receptor (AHR) (Mus musculus, UniProt P30561); assay: XRE-driven luciferase reporter assay, mouse Hepa1c1c7; type: cell-based
T1 construct: Transfection was performed with 150 ng XRE-luciferase plasmid (Promega); endogenous in cells; host or cells: Hepa-1c1c7 (mouse hepatoma cell line)
T1 sequence (P30561 10-805 limits assumed): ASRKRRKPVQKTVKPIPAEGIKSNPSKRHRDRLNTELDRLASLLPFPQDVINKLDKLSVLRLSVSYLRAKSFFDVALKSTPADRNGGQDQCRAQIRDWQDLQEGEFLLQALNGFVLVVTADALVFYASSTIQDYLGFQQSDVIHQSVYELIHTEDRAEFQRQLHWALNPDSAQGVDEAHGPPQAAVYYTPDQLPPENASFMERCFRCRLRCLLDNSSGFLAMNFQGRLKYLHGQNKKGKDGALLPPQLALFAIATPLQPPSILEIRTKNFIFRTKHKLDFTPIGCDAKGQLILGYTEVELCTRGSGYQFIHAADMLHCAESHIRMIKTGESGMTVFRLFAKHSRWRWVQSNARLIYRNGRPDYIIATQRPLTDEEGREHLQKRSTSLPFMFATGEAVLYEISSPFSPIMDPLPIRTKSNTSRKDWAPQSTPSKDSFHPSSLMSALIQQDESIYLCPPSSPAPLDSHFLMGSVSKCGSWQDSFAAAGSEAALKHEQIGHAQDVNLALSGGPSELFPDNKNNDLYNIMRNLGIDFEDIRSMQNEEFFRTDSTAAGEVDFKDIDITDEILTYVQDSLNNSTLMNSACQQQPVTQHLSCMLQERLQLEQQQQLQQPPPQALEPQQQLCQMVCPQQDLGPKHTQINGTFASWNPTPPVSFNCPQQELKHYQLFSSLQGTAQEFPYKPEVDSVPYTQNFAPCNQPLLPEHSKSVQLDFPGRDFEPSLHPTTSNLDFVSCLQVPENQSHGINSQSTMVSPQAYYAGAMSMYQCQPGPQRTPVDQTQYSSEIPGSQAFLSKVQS
T1 sequence (P53762 whole entry partner): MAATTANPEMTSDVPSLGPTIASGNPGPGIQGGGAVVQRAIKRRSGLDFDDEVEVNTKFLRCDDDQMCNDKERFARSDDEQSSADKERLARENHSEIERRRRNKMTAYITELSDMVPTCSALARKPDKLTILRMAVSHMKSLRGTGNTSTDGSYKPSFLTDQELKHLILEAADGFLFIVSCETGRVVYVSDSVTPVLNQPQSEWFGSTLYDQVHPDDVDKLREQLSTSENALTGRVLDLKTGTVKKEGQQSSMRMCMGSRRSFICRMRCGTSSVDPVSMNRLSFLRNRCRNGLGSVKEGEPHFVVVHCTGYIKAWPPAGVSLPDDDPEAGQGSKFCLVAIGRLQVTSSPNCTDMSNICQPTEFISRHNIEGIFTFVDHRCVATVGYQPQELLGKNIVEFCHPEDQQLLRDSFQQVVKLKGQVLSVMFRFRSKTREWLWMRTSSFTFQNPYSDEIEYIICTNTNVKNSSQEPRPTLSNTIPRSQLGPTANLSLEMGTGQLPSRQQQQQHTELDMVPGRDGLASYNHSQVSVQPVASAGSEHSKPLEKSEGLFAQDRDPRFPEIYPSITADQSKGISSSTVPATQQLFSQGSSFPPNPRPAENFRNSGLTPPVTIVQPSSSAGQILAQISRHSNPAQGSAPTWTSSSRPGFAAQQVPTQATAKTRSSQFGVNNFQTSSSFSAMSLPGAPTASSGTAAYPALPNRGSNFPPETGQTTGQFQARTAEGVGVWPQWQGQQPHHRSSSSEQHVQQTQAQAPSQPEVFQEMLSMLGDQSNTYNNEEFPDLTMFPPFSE
Experimental: Human HepG2 or mouse Hepa-1c1c7 cells were seeded in 96 well opaque plates at 75,000 cells per well in full medium (DMEM+10% FBS) for 24 hours. Transfection was performed with 150 ng XRE-luciferase plasmid (Promega) with 4:1 Fugene to DNA ratio for 18 hours in Opti-MEM. Transfected cells were treated with AhR agonist (10^−5-10^−12) for 4.5 h in full medium. Cells were lysed and luciferase was activated using the Luciferase Assay System (Promega). Luminescence signals were measured with a FluroStar Omega microplate reader. Luminescence signals of compound treated groups were normalized to vehicle (DMSO) treated control and plotted as concentration dependent fold changes.

AhR [7] = target: T2, AhR (Homo sapiens, UniProt P35869); assay: AhR nuclear translocation assay, human HepG2; type: cell-based; details: human HepG2, 10 μM, 90 minutes
T2 construct: endogenous in cells; host or cells: HepG2 (human liver cancer cell line)
T2 sequence (P35869 11-848): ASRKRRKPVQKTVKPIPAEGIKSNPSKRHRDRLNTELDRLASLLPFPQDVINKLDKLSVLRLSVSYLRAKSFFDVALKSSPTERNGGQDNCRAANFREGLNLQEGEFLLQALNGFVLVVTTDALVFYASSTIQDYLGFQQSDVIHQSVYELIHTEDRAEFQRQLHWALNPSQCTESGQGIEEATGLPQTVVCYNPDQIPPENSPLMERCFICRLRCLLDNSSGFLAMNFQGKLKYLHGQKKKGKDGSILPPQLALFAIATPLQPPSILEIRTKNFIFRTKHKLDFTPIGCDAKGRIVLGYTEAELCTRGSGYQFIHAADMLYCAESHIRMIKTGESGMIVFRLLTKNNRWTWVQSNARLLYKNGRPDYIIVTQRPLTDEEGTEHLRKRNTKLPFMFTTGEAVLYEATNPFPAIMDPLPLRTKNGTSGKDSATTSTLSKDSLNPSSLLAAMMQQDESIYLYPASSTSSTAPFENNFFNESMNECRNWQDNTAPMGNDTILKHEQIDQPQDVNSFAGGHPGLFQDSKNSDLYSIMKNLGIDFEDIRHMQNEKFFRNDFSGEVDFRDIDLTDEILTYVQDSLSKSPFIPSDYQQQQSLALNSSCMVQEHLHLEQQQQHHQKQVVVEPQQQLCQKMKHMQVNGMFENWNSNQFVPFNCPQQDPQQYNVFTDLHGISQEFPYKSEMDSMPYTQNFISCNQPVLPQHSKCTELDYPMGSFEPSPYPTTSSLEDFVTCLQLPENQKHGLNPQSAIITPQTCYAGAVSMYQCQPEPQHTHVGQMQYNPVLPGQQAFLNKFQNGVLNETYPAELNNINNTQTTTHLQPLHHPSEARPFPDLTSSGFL
Experimental: (§2) Mouse Hepa-1c1c7 or human HepG2 cells were seeded in 8 well chamber slides followed by 24 hours incubation in tryptophan deficient media (HBSS with Ca^2+ and Mg^2+, 10% heat inactivated FBS, 1× non-essential amino acids, 1× sodium pyruvate, 4.5 g/L glucose). Cells were treated with vehicle control (DMSO) or 10 μM ITE, compound 108, or compound 109 for 90 minutes in tryptophan deficient media. Following treatment, cells were fixed in 4% formaldehyde and processed according to standard immunofluorescence staining protocol. Primary anti-AhR antibody was applied at 1:100 dilution (Enzo, BML-SA210) and Alexa488 conjugated secondary antibody was applied at 1:500 dilution (Cell Signaling, 4412S). Actin was stained using Alexa 568 conjugated Phalloidin (Fisher). Samples were mounted in anti-fade mounting medium supplemented with DAPI for nuclear staining and imaged with confocal microscopy (Leica SP5×MP, 63× oil lens).

[8] = within 8 h; cited from earlier work
[9] = target: T3, aryl hydrocarbon receptor (AHR) (Homo sapiens, UniProt P35869); assay: XRE-driven luciferase reporter assay, human HepG2
T3 sequence (P35869 11-848): T2 sequence (P35869 11-848)

AhR [10] = target: T4, AhR (Mus musculus, UniProt P30561); assay: AhR nuclear translocation assay, mouse Hepa-1c1c7; type: cell-based; details: mouse Hepa-1c1c7, 10 μM, 90 minutes
T4 construct: endogenous in cells; host or cells: Hepa-1c1c7 (mouse hepatoma cell line)
T4 sequence (P30561 10-805 limits assumed): as the sequence (P30561 10-805 limits assumed) above
T4 sequence (P53762 whole entry partner): as the sequence (P53762 whole entry partner) above
Experimental: as §2

SMILES | liver microsomal stability [1] | CYP1A1 induction (% of ITE ± SEM) ([2]; 50 nM) | CYP1A1 induction (% of ITE ± SEM) ([2]; 5 μM) | species found in plasma after oral dosing [3] | plasma stability [4] | CYP1A1 induction (% of ITE ± SEM) [5] | EC50 [6] | XRE luciferase Emax (fold) [6] | AhR nuclear translocation (AhR [7]) | ITE inactivated in cell culture [8] | XRE luciferase Emax (fold) ([9]; Human HepG2, fold over vehicle) | EC50 ([9]; XRE luciferase EC50, Human HepG2, least square curve fitting, >10,000 = does not reach 50% of Emax of ITE at 10 μM (highest concentration tested)) | AhR nuclear translocation (AhR [10])
COC(=O)c1cccc(C(=O)c2c[nH]c3ccccc23)n1 [Compound 10, methyl 6-(1H-indole-3-carbonyl)pyridine-2-carboxylate] | highly unstable | 143 ± 90 % of ITE | 88 ± 38 % of ITE | only revealed the presence of the much less active carboxylic acid derivative | highly unstable | – | – | – | – | – | – | – | –
COC(=O)c1csc(C(=O)c2c[nH]c3ccccc23)n1 [ITE, 2-(1H-indol-3-ylcarbonyl)-4-thiazolecarboxylic acid methyl ester, reference compound] | highly unstable | 100 % of ITE | 100 % of ITE | – | highly unstable | 100 % of ITE | 30 nM | 79 fold | localized in the nucleus; also recorded: rapid nuclear enrichment of AhR | 75% | 63 fold | 5.3 nM | localized in the nucleus; also recorded: rapid nuclear enrichment of AhR

From patent US12152016B2, “Aryl hydrocarbon receptor modulators and uses thereof” (Beth Israel Deaconess Medical Center, Inc., priority 2018, dated 2024)
